These results are taken from paper PMC7144376, “Antiviral Effects of Novel 2-Benzoxyl-Phenylpyridine Derivatives” (Molecules, 2020).

SMILES strings stand for the structures. Bounds are passed on as bounds.

Series [1] deals with CVB3. As to the kind of experiment: Direct inactivation of virions (viricidal test). The series is classed as cell-based, Coxsackievirus B3. The following applies: 10^4 TCID50 CVB3, 2 h at 37 °C; 120 μM W-9, 160 μM W-13, W-15, ribavirin. As to the method: To determine whether these 2-benzoxyl-phenylpyridine derivatives inactivated virions directly, 10^4 TCID50 of CVB3 suspension was incubated with 120 μM W-9, 160 μM W-13, 160 μM W-15, or 160 μM ribavirin for 2 h at 37 °C. Subsequently, viral titers were measured by inoculating 100-fold dilutions of the mixtures, beyond the effective concentrations of the compounds, into the host cells. TCID50 values were calculated by the Reed–Muench method on day 2 post-inoculation.

The test system of series [2] is CVB3. Description: Time of (drug) addition experiment. In kind it is cell-based, Coxsackievirus B3. The following applies: compound present −1–10, 0–10 or 2–10 h; yield at 12 h pi; 120 μM W-9, 160 μM W-13, W-15, ribavirin. As to the method:
To further elucidate the mechanisms underlying the activities of W9, W13, and W15 against CVB3 propagation in cells, we conducted a time-of-addition experiment. Briefly, 120 μM W-9, or 160 μM W-13, W-15 or ribavirin, were added to Hep-2 cells at different time periods following CVB3 infection and progeny virus yield was determined at 12 h post-infection (pi). […] In contrast, when compounds were added during the 4–10 h stage after viral infection, production of viral progeny increased somewhat, however, compared with the virus control group, the inhibition effect was still clear. Drug treatments during other periods following CVB3 infection led to a gradual increase in viral yields, reflecting a loss of antiviral effects.
Figure 4 Time-of-addition assay. 120 μM W-9, or 160 μM W-13, W-15, or ribavirin, were added to Hep-2 cells for different time periods after CVB3 infection. Progeny virus yield was determined at 12 h post-infection ((−1)–0 h, viral infection period; 0–10 h, period of virus proliferation in cells). Values are presented as means ± SDs. * p < 0.05; ** p < 0.01, compared with the virus control group.
Hep-2 cells were infected with 100 TCID50 of CVB3 and then 120 μM W-9, 160 μM W-13, 160 μM W-15, or 160 μM ribavirin were added for different time periods (−1–0, 0–10, 2–10, 4–10, 6–10, 8–10, or −1–10 h pi, where –1–0 h is the viral infection period and 0–10 h is the period of virus proliferation in the cells). Cells and culture supernatants were harvested at 12 h pi and subjected to three freeze-thaw cycles, after which virus titers were determined by the Reed–Muench method.

Series [3] in a line: Cytotoxicity on uninfected HeLa cells (MTT, 48 h). The series is classed as cell-based. The following applies: human, read-out: CC50 (reduce cell viability by 50%), ADV7 host cells. As to the method: Human laryngeal carcinoma cells (Hep-2) and human cervical carcinoma cells (HeLa) were maintained in DMEM (Gibco) supplemented with 10% fetal bovine serum (FBS; Gibco), 100 U/mL penicillin and streptomycin, and 2 mM L-glutamine.
The antiviral activities of compounds against CVB3 and ADV7 were determined by measuring their inhibition of virus-induced CPEs in acutely infected Hep-2 and HeLa cells, respectively. Confluent cell monolayers in 96-well plates were infected with 100 TCID50 of CVB3 or ADV7 for 1.5 h at 37 °C, inocula were aspirated, and the cells then were incubated with various concentrations of compounds at 37 °C, 5% CO2, for 48 h. CPEs were observed by microscopy and the viability of cells was determined using MTT assays. The concentrations of test compounds required to achieve 50% protection from virus-induced cytopathogenicity (EC50 values) were determined. Adverse effects of tested compounds on host cells were also assessed using the MTT method after exposing uninfected cells to various concentrations of test compounds for 48 h at 37 °C. The CC50 values of compounds were calculated using SPSS software and selectivity indices were the ratio of CC50:EC50. Each experiment was performed in triplicate and at least three times, independently.

A further series relates to ADV7. Description: ADV7 progeny virus yield in HeLa cells (TCID50 titration). The series is classed as cell-based, adenovirus type 7. The conditions noted are these: 36 h, 120 μM W-9, 160 μM W-13, 160 μM W-15, 160 μM ribavirin. As to the method: Based on their antiviral activities and therapeutic selectivity indices, the effects on virus progeny yields of compounds W9, W13, and W15 were further investigated, using ribavirin as a positive control drug. To this end, confluent monolayers of Hep-2 or HeLa cells in 96-well plates were infected with 100 × median tissue culture infective dose (TCID50) of CVB3 or ADV7, then treated with 120 μM W-9, 160 μM W-13, 160 μM W-15, or 160 μM ribavirin. After 36 h, culture media and cell lysates were collected, following freeze-thaw cycles, and then subjected to virus titration.
Figure 2 The effects of W9, W13, and W15 on progeny virus production. Hep-2 cells infected with 100 TCID50 of CVB3 (a), or HeLa cells infected with 100 TCID50 of ADV7(b), were incubated in the absence (virus control) or presence of 120 μM W-9, 160 μM W-13, 160 μM W-15, or 160 μM ribavirin for 36 h, and the culture media and cell lysates then harvested for virus titration. Viral titers are presented as Log10 TCID50/mL. * p < 0.05; ** p < 0.01, compared with the virus control group.
CVB3 or ADV7 suspensions, serially diluted 10-fold with DMEM containing 2% FBS (DMEM maintenance medium, MM), were inoculated to Hep-2 or HeLa cells in 96-well plates. After 1.5 h incubation at 37 °C in 5% CO2, unbound virus was washed out and the MM was added to the cells. After 2 days, infected cells were monitored for CPEs and virus titers were calculated using the Reed–Muench method.

In the case of `NC(=O)c1ncn([C@@H]2O[C@H](CO)[C@@H](O)[C@H]2O)n1` [Ribavirin, reference compound], in the series with CVB3 [1], the “virus titer after incubating CVB3 suspension with compound (viricidal activity)” value (from here on “virus titer … (viricidal activity)”) was “No significant difference”. In the series with CVB3 [2], the “progeny virus titer in time-of-addition assay” value (shortened to “progeny virus titer”) was “very similar effects”. In addition, the CC50 at 48 h in series [3] came out at 807 µM. For the same compound, the “reduction in ADV7 virus progeny titer relative to untreated control” value in the series with ADV7 is reported as around 1.7 log.

With `O=C(Oc1cc(Cl)ccc1-c1ccccn1)c1ccccc1` [W9], the “virus titer … (viricidal activity)” value in the series with CVB3 [1] is “No significant difference”. In the series with CVB3 [2], the “progeny virus titer” value is recorded as “progeny virus titers were reduced”. For the same compound, in series [3], the CC50 at 48 h was 265 ± 28.1 µM. In addition, the “reduction in ADV7 virus progeny titer relative to untreated control” value with ADV7 is reported as “approximately 2.0 log”.

Regarding `Cc1ccc(OC(=O)C(C)(C)C)c(-c2ccccn2)c1` [W13], the “virus titer … (viricidal activity)” value with CVB3 [1] is given as “No significant difference”. Besides, the “progeny virus titer” value in the series on CVB3 [2] is “progeny virus titers were reduced”. The CC50 at 48 h in series [3] is above 372 µM. In addition, the “reduction in ADV7 virus progeny titer relative to untreated control” value with ADV7 is listed as “approximately 2.0 log”.

`CC(=O)Oc1ccc(-c2ccccn2)c(OC(=O)c2ccccc2)c1` [W15]: the “virus titer … (viricidal activity)” value with CVB3 [1] is on record as “No significant difference”. Moreover, the “progeny virus titer” value in the series on CVB3 [2] is reported as “progeny virus titers were reduced”. Moreover, the CC50 at 48 h in series [3] worked out at 795 ± 33.8 µM. Further, the “reduction in ADV7 virus progeny titer relative to untreated control” value in the series on ADV7 is recorded as “approximately 2.0 log”.

In general, CC50 refers to the concentration giving 50% cytotoxicity.
